{
  "source": "PubChem BioAssay (NCI)",
  "assay_in_all_cases": "NCI tumour cell line growth inhibition, 48 h",
  "key": {"[1]": {"system": "XF 498 CNS"}, "[2]": {"system": "OVCAR-4 ovarian"}, "[3]": {"system": "RXF-631 renal"}, "[4]": {"system": "NCI-H522 lung"}, "[5]": {"system": "K-562 leukemia"}, "[6]": {"system": "LOX IMVI melanoma"}, "[7]": {"system": "DMS 273 small cell lung"}, "[8]": {"system": "UACC-257 melanoma"}, "[9]": {"system": "SK-MEL-28 melanoma"}, "[10]": {"system": "OVCAR-5 ovarian"}, "[11]": {"system": "NCI-H460 lung"}, "[12]": {"system": "HOP-62 NSCLC"}, "[13]": {"system": "HCT-15 colon"}, "[14]": {"system": "DLD-1 colon"}, "[15]": {"system": "SK-MEL-2 melanoma"}, "[16]": {"system": "SNB-75 CNS"}, "[17]": {"system": "NCI-H23 lung"}, "[18]": {"system": "UO-31 renal"}, "[19]": {"system": "SW-620 colon"}, "[20]": {"system": "SK-MEL-5 melanoma"}, "[21]": {"system": "COLO 205 colon"}, "[22]": {"system": "DMS 114 small cell lung"}, "[23]": {"system": "KM20L2 colon"}, "[24]": {"system": "RXF 393 renal"}, "[25]": {"system": "OVCAR-3 ovarian"}, "[26]": {"system": "A549 NSCLC"}, "[27]": {"system": "SF-295 CNS"}, "[28]": {"system": "LXFL 529 NSCLC"}, "[29]": {"system": "CAKI-1 renal"}, "[30]": {"system": "SF-539 CNS"}, "[31]": {"system": "ACHN renal"}, "[32]": {"system": "786-0 renal"}, "[33]": {"system": "OVCAR-8 ovarian"}, "[34]": {"system": "HCC-2998 colon"}, "[35]": {"system": "SN12C renal"}, "[36]": {"system": "IGROV1 ovarian"}, "[37]": {"system": "SR leukemia"}, "[38]": {"system": "RPMI-8226 leukemia"}, "[39]": {"system": "SNB-19 CNS"}, "[40]": {"system": "HT29 colon"}, "[41]": {"system": "HCT-116 colon"}, "[42]": {"system": "U251 CNS"}, "[43]": {"system": "SNB-78 CNS"}, "[44]": {"system": "SF-268 CNS"}, "[45]": {"system": "NCI-H226 lung"}, "[46]": {"system": "M14 melanoma"}, "[47]": {"system": "TK-10 renal"}, "[48]": {"system": "MOLT-4 leukemia"}, "[49]": {"system": "M19-MEL melanoma"}, "[50]": {"system": "KM12 colon"}},
  "note": "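Each compound was tested at five concentrations against cells in 96-well plates for 48 hours. TGI denotes the concentration required for complete inhibition of growth.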",
  "data": [
    {"smiles": "O=C(c1ccccc1)[C@H]1Nc2ccc(Cl)cc2C2c3ccccc3CC21", "note": "(stereo not given in full)", "values": [
      {"measurement": "TGI", "setting": "[1]", "value": 72.5, "unit": "µM"},
      {"measurement": "TGI", "setting": "[2]", "value": 50.9, "unit": "µM"},
      {"measurement": "TGI", "setting": "[3]", "value": "> 100", "unit": "µM"},
      {"measurement": "TGI", "setting": "[4]", "value": "> 100", "unit": "µM"},
      {"measurement": "TGI", "setting": "[5]", "value": "> 100", "unit": "µM"},
      {"measurement": "TGI", "setting": "[6]", "value": "> 100", "unit": "µM"},
      {"measurement": "TGI", "setting": "[7]", "value": "> 100", "unit": "µM"},
      {"measurement": "TGI", "setting": "[8]", "value": 85.9, "unit": "µM"},
      {"measurement": "TGI", "setting": "[9]", "value": 97, "unit": "µM"},
      {"measurement": "TGI", "setting": "[10]", "value": "> 100", "unit": "µM"},
      {"measurement": "TGI", "setting": "[11]", "value": "> 100", "unit": "µM"},
      {"measurement": "TGI", "setting": "[12]", "value": "> 100", "unit": "µM"},
      {"measurement": "TGI", "setting": "[13]", "value": "> 100", "unit": "µM"},
      {"measurement": "TGI", "setting": "[14]", "value": "> 100", "unit": "µM"},
      {"measurement": "TGI", "setting": "[15]", "value": "> 100", "unit": "µM"},
      {"measurement": "TGI", "setting": "[16]", "value": "> 100", "unit": "µM"},
      {"measurement": "TGI", "setting": "[17]", "value": "> 100", "unit": "µM"},
      {"measurement": "TGI", "setting": "[18]", "value": "> 100", "unit": "µM"},
      {"measurement": "TGI", "setting": "[19]", "value": "> 100", "unit": "µM"},
      {"measurement": "TGI", "setting": "[20]", "value": 85.2, "unit": "µM"},
      {"measurement": "TGI", "setting": "[21]", "value": "> 100", "unit": "µM"},
      {"measurement": "TGI", "setting": "[22]", "value": "> 100", "unit": "µM"},
      {"measurement": "TGI", "setting": "[23]", "value": "> 100", "unit": "µM"},
      {"measurement": "TGI", "setting": "[24]", "value": 45.4, "unit": "µM"},
      {"measurement": "TGI", "setting": "[25]", "value": 66.1, "unit": "µM"},
      {"measurement": "TGI", "setting": "[26]", "value": "> 100", "unit": "µM"},
      {"measurement": "TGI", "setting": "[27]", "value": 67.5, "unit": "µM"},
      {"measurement": "TGI", "setting": "[28]", "value": "> 100", "unit": "µM"},
      {"measurement": "TGI", "setting": "[29]", "value": "> 100", "unit": "µM"},
      {"measurement": "TGI", "setting": "[30]", "value": "> 100", "unit": "µM"},
      {"measurement": "TGI", "setting": "[31]", "value": "> 100", "unit": "µM"},
      {"measurement": "TGI", "setting": "[32]", "value": "> 100", "unit": "µM"},
      {"measurement": "TGI", "setting": "[33]", "value": "> 100", "unit": "µM"},
      {"measurement": "TGI", "setting": "[34]", "value": 83.4, "unit": "µM"},
      {"measurement": "TGI", "setting": "[35]", "value": "> 100", "unit": "µM"},
      {"measurement": "TGI", "setting": "[36]", "value": "> 100", "unit": "µM"},
      {"measurement": "TGI", "setting": "[37]", "value": "> 100", "unit": "µM"},
      {"measurement": "TGI", "setting": "[38]", "value": "> 100", "unit": "µM"},
      {"measurement": "TGI", "setting": "[39]", "value": "> 100", "unit": "µM"},
      {"measurement": "TGI", "setting": "[40]", "value": "> 100", "unit": "µM"},
      {"measurement": "TGI", "setting": "[41]", "value": "> 100", "unit": "µM"},
      {"measurement": "TGI", "setting": "[42]", "value": "> 100", "unit": "µM"},
      {"measurement": "TGI", "setting": "[43]", "value": "> 100", "unit": "µM"},
      {"measurement": "TGI", "setting": "[44]", "value": "> 100", "unit": "µM"},
      {"measurement": "TGI", "setting": "[45]", "value": "> 100", "unit": "µM"},
      {"measurement": "TGI", "setting": "[46]", "value": "> 100", "unit": "µM"},
      {"measurement": "TGI", "setting": "[47]", "value": "> 100", "unit": "µM"},
      {"measurement": "TGI", "setting": "[48]", "value": "> 100", "unit": "µM"},
      {"measurement": "TGI", "setting": "[49]", "value": "> 100", "unit": "µM"},
      {"measurement": "TGI", "setting": "[50]", "value": "> 100", "unit": "µM"}
    ]}
  ]
}
